The results in this text go back to patent publication US10231958B2, “Methods and compositions for enhancing chemotherapy” (THE BOARD OF REGENTS OF THE UNIVERSITY OF TEXAS SYSTEM, priority 2015, dated 2019).

For test [1], the system named is MDA-MB231 xenograft implants. As to the kind of experiment: MDA-MB231 xenograft study. Format: in vivo, mouse. From the text: The study was approved by the University of Texas Health Science Center at San Antonio Institutional Animal Care and Use Committee (IACUC) policy as outlined in protocol number 11024. The facility is operated in compliance with the Public Law 89-544 (Animal Welfare Act) and its amendments, Public Health Services Policy on Humane Care and Use of Laboratory Animals (PHS Policy) using the Guide for the Care and Use of Laboratory Animals (Guide) as the basis of operation. Selection of cyclophosphamide and sorafenib doses was based on previously published reports (Sun et al., 2010, J Int Med Res 38, 967-76; Wilhelm et al., 2004 Cancer Res 64, 7099-109). MDA-MB-231 cells were harvested by trypsinization, washed and re-suspended in serum-free medium. Thereafter, cells were mixed with matrigel (1:1), and approximately 5×10^6 cells were subcutaneously injected in the right flank of each mouse. When the average tumor volume reached about 100 mm^3, mice were randomized into groups of 8 animals each, and the following treatment protocol was implemented: Group 1 (control): 100 μL of saline (i.p.); Group 2: sorafenib (1 mg/kg; i.p.) for 9 days; Group 3: cyclophosphamide 0.1 g/kg on days 2, 4, 6 and 8; Group 4: Sorafenib+cyclophosphamide (combination of same above described regimens). All animals were sacrificed 5 days after the end of treatments (15th day of the treatment protocol). Body weight of mice was recorded weekly, and tumor size was measured thrice a week in two dimensions using a digital caliper. The tumor volume was calculated by the formula 0.5236 L1(L2)^2, where L1 is the long axis, and L2 is the short axis of the tumor. At the termination of the study, mice were euthanized; tumors were excised and a part was fixed in 10% phosphate-buffered formalin for H&E, Masson's staining and immunohistochemistry (IHC) analyses.

Test [2] has as its system MDA-MB231 cells. As to the kind of experiment: Gene expression profiling (RNAseq) in MDA-MB231 cells. Format: cell-based, human. As for the experimental part:
Human cancer cell-lines treated with different pharmaceutical compounds were profiled by RNA-seq protocol using Illumina HiSeq 2000 system (Illumina, San Diego, Calif.). RNA was harvested 0, 8 and 24 hours post treatment using the RNeasy protocol (Qiagen) and the purity of prepared RNA was determined using Agilent 2100 BioAnalyzer. Total RNA samples about […] were used for sequencing library preparation according to Illumina TruSeq Total RNA Sample Preparation Guide (Illumina Cat. #: RS-122-2201). Each library was bar-coded and then pooled for cluster generation and sequencing run with 100 bp paired-end (PE) sequencing protocol. Short read sequences from RNAseq were first aligned to UCSC hg19 genome build using TopHat2 algorithm (PMID:19289445) and then quantified for gene expression by HTSeq [Anders, 2014]. Genes with lower read counts (determined by examining read counts in non-exonic regions) were removed. Differential expression more than 2 fold was selected as differentially expressed genes (DEGs).
For those genes for which expression was higher than noise/background, significant change in expression compared to unexposed (0 h) control, ±2-fold change, was used as cut-off for induction/repression. The lists of genes with altered expression were analyzed using Ingenuity Systems (IPA, Ingenuity Pathway Analyzer, Qiagen), DAVID (PMID:19131956; PMID: 19033363), and Rock Breast Cancer Functional Genomic Database (PMID:20563840) analytical software (p<0.05; FDR<10%) to ensure a good coverage of both metabolic and transduction pathways (due to differences in pathways libraries with the databases). Only pathways related to biological processes/signaling were considered relevant, and the terms were grouped by similarity of the biological for presentation; disease related pathways were discarded. Transcription factor enrichment analysis was performed using the TFactS software (PMID:20215436), which uses an algorithm to compare potential transcription factors involved in the regulation of genes with the input lists. […]

Entries after “also recorded” stand apart in the source; their conditions may differ.

Turning to `CNC(=O)c1cc(Oc2ccc(NC(=O)Nc3ccc(Cl)c(C(F)(F)F)c3)cc2)ccn1` [sorafenib, 4-[4-[[4-chloro-3-(trifluoromethyl)phenyl]carbamoylamino]phenoxy]-N-methyl-pyridine-2-carboxamide], the “tumor growth, single agent” value in test [1] (sorafenib 1 mg/kg i.p. 9 days, cyclophosphamide 0.1 g/kg days 2, 4, 6, 8) was “significantly decrease tumor growth”. In addition, in test [1] (sorafenib 1 mg/kg i.p. plus cyclophosphamide 0.1 g/kg), the “tumor growth, combination with cyclophosphamide” value is “synergize with cyclophosphamide”. In addition, in test [1] (sorafenib alone, 7 days of treatment), the “tumor volume at which growth was stabilized” value was around 150 mm^3. Further, the “effect on cyclophosphamide-induced angiogenic response” value in test [1] (sorafenib combined with cyclophosphamide) is “significant inhibition of cyclophosphamide-induced angiogenic response; also recorded: blocked cyclophosphamide-induced vessels formation”. Moreover, in test [2] (5 μM sorafenib), the “effect on NRF2 and UPR genes” value was “lack of effect”; the “effect on basal gene expression (VEGFA, HES1, MAML3, PLAT, ADAMST1)” value is on record as “decreased basal expression of several genes”. Further, in test [2] (5 μM sorafenib plus MMS), the “effect on MMS-induced inflammatory/invasive genes” value was “blocked several of the aforementioned MMS-induced inflammatory/invasive genes”.
